Measurements taken from US9302999B2, “Substituted triazoles as herbicides” (E. I. DU PONT DE NEMOURS AND COMPANY, priority 2012, dated 2016).
Read-outs that look alike come from different tables or passages of the source.

Key:
Format in all cases: in vivo
[1] = test system: ducksalad (Heteranthera limosa); experiment: Test C flooded paddy test: ducksalad; conditions: Heteranthera limosa, scale 0 to 100 (0 no effect, 100 complete control), read-out: Plant response rating, Ducksalad; for pest or weed control at 62 g/ha: 62 g ai/ha; for pest or weed control at 250 g/ha: 250 g ai/ha; for pest or weed control at 125 g/ha: 125 g ai/ha
Method in brief: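 Visual ratings from 0 (no effect) to 100 (complete control), made against untreated controls 13 to 15 days after treatment, express plant response. Compounds went directly into paddy water over 2-leaf stage plants in pots flooded to 3 cm.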

[2] = test system: bluegrass (annual bluegrass, Poa annua); experiment: Test D pre-/postemergence: bluegrass
From the text: (§1) Seeds of plant species selected from bluegrass (annual bluegrass, Poa annua), blackgrass (Alopecurus myosuroides), canarygrass (Phalaris minor), chickweed (common chickweed, Stellaria media), galium (catchweed bedstraw, Galium aparine), bromegrass, downy (downy bromegrass, Bromus tectorum), field poppy (Papaver rhoeas), field violet (Viola arvensis), foxtail, green (green foxtail, Setaria viridis), deadnettle (henbit deadnettle, Lamium amplexicaule), ryegrass, Italian (Italian ryegrass, Lolium multiflorum), kochia (Kochia scoparia), lambsquarters (Chenopodium album), oilseed rape (Brassica napus), pigweed (Amaranthus retroflexus), Russian thistle (Salsola iberica), chamomile (scentless chamomile, Matricaria inodora), speedwell (bird's-eye speedwell, Veronica persica), barley, spring (spring barley, Hordeum vulgare), wheat, spring (spring wheat, Triticum aestivum), buckwheat, wild (wild buckwheat, Polygonum convolvulus), mustard, wild (wild mustard, Sinapis arvensis), oat, wild (wild oat, Avena fatua), radish, wild (wild radish, Raphanus raphanistrum), windgrass (Apera spica-venti), barley, winter (winter barley, Hordeum vulgare), and wheat, winter (winter wheat, Triticum aestivum) were planted into a silt loam soil and treated preemergence with test chemicals formulated in a non-phytotoxic solvent mixture which included a surfactant. At the same time, these same crop and weed species were planted in pots containing the planting medium comprising spaghnum peat moss, vermiculite, wetting agent and starter nutrients and treated with postemergence applications of the test chemicals formulated in the same manner. Plants ranged in height from 2 to 18 cm (1- to 4-leaf stage).
(§2) Treated plants and controls were maintained in a controlled growth environment for 14 to 21 days after which time all species were compared to controls and visually evaluated. Plant response ratings, summarized in Table D, are based on a scale of 0 to 100 where 0 is no effect and 100 is complete control. A dash (-) response means no test result.

[3] = test system: chickweed (common chickweed, Stellaria media); experiment: Test D pre-/postemergence: chickweed
From the text: as §1, §2

[4] = test system: field violet (Viola arvensis); experiment: Test D pre-/postemergence: field violet
From the text: as §1, §2

[5] = test system: barley, spring (spring barley, Hordeum vulgare); experiment: Test D pre-/postemergence: barley, spring
From the text: as §1, §2

[6] = Flood (flooded paddy test), visual rating after 13 to 15 days
[7] = Postemergence, 31 g ai/ha, scale 0 to 100 (0 no effect, 100 complete control)
[8] = Postemergence, 62 g ai/ha, scale 0 to 100 (0 no effect, 100 complete control)
[9] = Postemergence, 125 g ai/ha, scale 0 to 100, 0 no effect, 100 complete control
[10] = Postemergence, 250 g ai/ha, scale 0 to 100 (0 no effect, 100 complete control)
[11] = Preemergence, 31 g ai/ha, scale 0 to 100, 0 no effect, 100 complete control
[12] = Preemergence, 62 g ai/ha, scale 0 to 100
[13] = Preemergence, 125 g ai/ha, scale 0 to 100
[14] = Preemergence, 250 g ai/ha, scale 0 to 100
[15] = Postemergence, 16 g ai/ha, scale 0 to 100
[16] = Preemergence, 16 g ai/ha, scale 0 to 100, 0 no effect, 100 complete control

Structure (SMILES) | pest or weed control at 62 g/ha [1, 6] [%] | pest or weed control at 250 g/ha [1, 6] [%] | Plant response rating: Bluegrass [2, 7] | Plant response rating: Bluegrass [2, 8] | Plant response rating: Bluegrass [2, 9] | Plant response rating: Bluegrass [2, 10] | Plant response rating, Bluegrass [2, 11] | Plant response rating, Bluegrass [2, 12] | Plant response rating, Bluegrass [2, 13] | Plant response rating: Chickweed [3, 7] | Plant response rating: Chickweed [3, 8] | Plant response rating: Chickweed [3, 9] | Plant response rating: Chickweed [3, 10] | Plant response rating, Chickweed [3, 11] | Plant response rating: Field Violet [4, 7] | Plant response rating: Field Violet [4, 8] | Plant response rating: Field Violet [4, 9] | Plant response rating: Barley, Spring [5, 7] | Plant response rating: Barley, Spring [5, 8] | Plant response rating: Barley, Spring [5, 9] | further results
Cc1nn(-c2ccc(C(F)(F)F)cc2)nc1Oc1csc(C(F)(F)F)c1 [Compound 1, 4-methyl-2-[4-(trifluoromethyl)phenyl]-5-[[5-(trifluoromethyl)-3-thienyl]oxy]-2H-1,2,3-triazole] | 0 | 0 |  |  |  |  |  |  |  |  |  |  |  |  |  |  |  |  |  |  | 
FC(F)(F)COc1nn(-c2ccc(C(F)(F)F)cc2)nc1Cc1ccnc(C(F)(F)F)c1 [Compound 14, 4-[[5-(2,2,2-trifluoroethoxy)-2-[4-(trifluoromethyl)phenyl]-2H-1,2,3-triazol-4-yl]methyl]-2-(trifluoromethyl)pyridine] | 40 | 60 | 20 | 35 | 70 | 95 | 0 | 30 | 85 | 50 | 80 | 90 | 98 | 75 | 100 | 100 | 100 | 25 | 25 | 30 | Plant response rating, Bluegrass [2, 14]: 100; Plant response rating, Chickweed [3, 12]: 100; Plant response rating, Chickweed [3, 13]: 100; Plant response rating, Chickweed [3, 14]: 100; Plant response rating: Field Violet [4, 10]: 100; Plant response rating, Field Violet [4, 11]: 75; Plant response rating, Field Violet [4, 12]: 90; Plant response rating, Field Violet [4, 13]: 95; Plant response rating, Field Violet [4, 14]: 95; Plant response rating: Barley, Spring [5, 10]: 40; Plant response rating, Barley, Spring [5, 11]: 0; Plant response rating, Barley, Spring [5, 12]: 10; Plant response rating, Barley, Spring [5, 13]: 15; Plant response rating, Barley, Spring [5, 14]: 20
COc1nn(-c2ccc(C(F)(F)F)cc2)nc1Cc1ccnc(C(F)(F)F)c1 [Compound 15, 4-[[5-methoxy-2-[4-(trifluoromethyl)phenyl]-2H-1,2,3-triazol-4-yl]methyl]-2-(trifluoromethyl)pyridine] | 40 | 60 | 10 | 25 | 50 | 95 | 0 | 5 | 80 | 100 | 100 | 100 | 100 | 100 | 100 | 100 | 100 | 15 | 25 | 30 | Plant response rating, Bluegrass [2, 15]: 0; Plant response rating, Bluegrass [2, 14]: 100; Plant response rating, Chickweed [3, 15]: 40; Plant response rating, Chickweed [3, 12]: 100; Plant response rating, Chickweed [3, 13]: 100; Plant response rating, Chickweed [3, 14]: 100; Plant response rating: Field Violet [4, 10]: 100; Plant response rating, Field Violet [4, 15]: 80; Plant response rating: Barley, Spring [5, 10]: 40; Plant response rating, Barley, Spring [5, 15]: 10; Plant response rating, Barley, Spring [5, 11]: 0; Plant response rating, Barley, Spring [5, 12]: 0; Plant response rating, Barley, Spring [5, 13]: 10; Plant response rating, Barley, Spring [5, 14]: 15
COCc1nn(-c2ccc(C(F)(F)F)cc2)nc1Oc1cccc(OC(F)(F)F)c1 [Compound 115, 4-(methoxymethyl)-5-[3-(trifluoromethoxy)phenoxy]-2-[4-(trifluoromethyl)phenyl]-2H-1,2,3-triazole] |  | 20 |  |  |  |  |  |  |  |  |  |  |  |  |  |  |  |  |  |  | pest or weed control at 125 g/ha [1, 6]: 0%; pest or weed control at 62 g/ha ([1]; Flood): 0%
FCc1nn(-c2ccc(C(F)(F)F)cc2)nc1Oc1cccc(OC(F)(F)F)c1 [Compound 116, 4-(fluoromethyl)-5-[3-(trifluoromethoxy)phenoxy]-2-[4-(trifluoromethyl)phenyl]-2H-1,2,3-triazole] |  | 50 |  |  |  |  |  |  |  |  |  |  |  |  |  |  |  |  |  |  | pest or weed control at 125 g/ha [1, 6]: 30%; pest or weed control at 62 g/ha ([1]; Flood): 0%
COc1nn(-c2ccc(C(F)(F)F)cc2)nc1Cc1ccnc(C(F)F)c1 [Compound 138] |  |  | 30 | 50 | 70 | 85 |  |  |  | 60 | 85 | 95 | 100 |  | 70 | 75 | 85 | 20 | 25 | 35 | Plant response rating, Bluegrass [2, 15]: 20; Plant response rating, Chickweed [3, 15]: 60; Plant response rating: Field Violet [4, 10]: 90; Plant response rating, Field Violet [4, 15]: 60; Plant response rating: Barley, Spring [5, 10]: 40; Plant response rating, Barley, Spring [5, 15]: 10
Cc1nn(-c2ccc(F)c(C(F)(F)F)c2)nc1Cc1ccnc(C(F)(F)F)c1 [Compound 156] |  |  | 65 | 70 | 80 |  | 5 | 40 | 100 | 75 | 90 | 95 |  | 100 | 95 | 95 | 95 | 20 | 25 | 30 | Plant response rating, Bluegrass [2, 15]: 15; Plant response rating, Bluegrass [2, 16]: 5; Plant response rating, Chickweed [3, 15]: 60; Plant response rating, Chickweed [3, 16]: 50; Plant response rating, Chickweed [3, 12]: 100; Plant response rating, Chickweed [3, 13]: 100; Plant response rating, Field Violet [4, 15]: 95; Plant response rating, Field Violet [4, 16]: 60; Plant response rating, Field Violet [4, 11]: 95; Plant response rating, Field Violet [4, 12]: 100; Plant response rating, Field Violet [4, 13]: 100; Plant response rating, Barley, Spring [5, 15]: 15; Plant response rating, Barley, Spring [5, 16]: 5; Plant response rating, Barley, Spring [5, 11]: 5; Plant response rating, Barley, Spring [5, 12]: 5; Plant response rating, Barley, Spring [5, 13]: 15
